Measurements taken from patent US20230338564A1, “NEODEGRADER CONJUGATES” (Orum Therapeutics, Inc., priority 2020, published 2023).
Read-outs that look alike come from different tables or passages of the source.

Key:
EOL-1 cell line = assay: In vitro antiproliferation assay, General Procedure 2 (CCK-8); format: cell-based, human
Text: (§1) Cell Culture: Cell lines were obtained from the American Type Culture Collection (ATCC, Manassas, VA, USA) or Deutsche Sammlung von Mikroorganismen und Zellkulturen (DSMZ, Braunschweig, Germany) and maintained according to the culturing conditions specified by ATCC or DSMZ. Cells were thawed out and maintained in culture for at least two passages before proceeding with experimental conditions.
(§2) Cytotoxicity assays: For adherent cell lines, the cells were dissociated with enzyme-free PBS-based cell dissociation buffer (Gibco, USA) and plated on tissue culture treated 96-well flat bottom polystyrene plates (Costar, Corning, USA) at appropriate cell densities depending on doubling time of the cells. 18 hours after plating, cells were treated with test articles at appropriate concentrations starting at 100 nM and diluted in 4-fold serial dilutions. For suspension cell lines, the cells were seeded on the same day of treatment and cells were treated as described above. Adherent cells were treated for 5 days and suspension cells were treated for 3 days. Cell proliferation was assessed using the Cell Counting Kit-8 (CCK-8, Dojindo Laboratories, Japan) and measurements were obtained using the Promega GloMax Discover plate reader (Promega, USA). Data were analyzed using GraphPad Prism software (GraphPad Software, San Diego, CA). All data points were obtained from technical triplicates and the experiments were validated using three biological replicates.

THP-1 cell line = assay: as above; format: cell-based; settings: Homo sapiens, AML
Text: as §1, §2

OCI-AML4 cell line = assay: as above; format: cell-based
Text: as §1, §2

Daudi cell line = assay: as above; format: cell-based; settings: Homo sapiens, NHL
Text: as §1, §2

RPMI7951 cell line = assay: as above; format: cell-based; settings: Homo sapiens, RPMI-7951; Skin
Text: as §1, §2

AGS cell line = assay: as above; format: cell-based; settings: Homo sapiens, Gastric
Text: as §1, §2

ML-2 cell line = assay: as above; format: cell-based
Text: as §1, §2

CMK cell line = assay: as above; format: cell-based; settings: Homo sapiens, Acute megakaryocytic leukemia
Text: as §1, §2

SU-DHL-8 cell line = assay: as above; format: cell-based; settings: Homo sapiens, NHL
Text: as §1, §2

JHUEM3 cell line = assay: as above; format: cell-based; settings: Endometrial
Text: as §1, §2

PL-21 cell line = assay: as above; format: cell-based; settings: Acute myeloid leukemia
Text: as §1, §2

OCI-AML2 cell line = assay: as above; format: cell-based
Text: as §1, §2

THLE2 cell line = assay: as above; format: cell-based; settings: THLE-2; Human liver normal
Text: as §1, §2

HL-60 cell line = assay: as above; format: cell-based
Text: as §1, §2

U251MG cell line = assay: as above; format: cell-based; settings: Homo sapiens, U-251; Brain
Text: as §1, §2

MOLM13 cell line = assay: as above; format: cell-based
Text: as §1, §2

SNU182 cell line = assay: as above; format: cell-based; settings: Homo sapiens, SNU-182; Liver
Text: as §1, §2

OCI-M1 cell line = assay: as above; format: cell-based; settings: Acute myeloid leukemia
Text: as §1, §2

NB-4 cell line = assay: as above; format: cell-based; settings: Homo sapiens, Acute promyelocytic leukemia
Text: as §1, §2

SKOV3 cell line = assay: as above; format: cell-based; settings: Homo sapiens, SK-OV-3; Ovarian
Text: as §1, §2

KE39 cell line = assay: as above; format: cell-based; settings: Gastric
Text: as §1, §2

MV4-11 cell line = assay: as above; format: cell-based
Text: as §1, §2

BT-474 cell line = assay: as above; format: cell-based; settings: Homo sapiens, Breast, read-out: IC50, BT474
Text: as §1, §2

Molp8 cell line = assay: as above; format: cell-based; settings: Homo sapiens, MOLP-8; MM
Text: as §1, §2

SK-BR-3 cell line = assay: as above; format: cell-based; settings: Homo sapiens, Breast, read-out: IC50, SKBR3
Text: as §1, §2

SKM-1 cell line = assay: as above; format: cell-based
Text: as §1, §2

OCI-M2 cell line = assay: as above; format: cell-based; settings: Acute myelocytic leukemia
Text: as §1, §2

LOVO cell line = assay: as above; format: cell-based; settings: Homo sapiens, Colon
Text: as §1, §2

[1] = tested on: SK-BR-3 breast cancer cell line; assay: In vitro antiproliferation assay, General Procedure 1 (WST-8); format: cell-based; settings: SK-BR-3 cells; neoDegrader conjugates (DAR 8) versus comparators; FIGS. 7 and 8
Description: (§3) The ability of neoDegrader conjugates to inhibit cell growth was measured using in vitro anti-proliferation assay. […] Conjugates were diluted in complete cell growth medium using 4-fold serial dilutions and 100 µL was added per well. […] Viability of remaining cells was determined by colorimetric WST-8 assay (Dojindo Molecular Technologies, Inc., Rockville, MD, US). WST-8 was added to 10% of the final volume and plates were incubated at 37° C. in a humidified 5% CO2 incubator for 2-4 hours. Plates were analyzed by measuring the absorbance at 450 nm (A450) in a multi-well plate reader. Background A450 absorbance of wells with media and WST-8 only was subtracted from all values. The percent viability was calculated by dividing each treated sample value by the average value of wells with untreated cells. The percent viability value was plotted against the test sample concentration in a semi-log plot for each treatment. IC50 values were calculated automatically.

[2] = tested on: BT-474 breast cancer cell line; assay: as above; format: cell-based; settings: Homo sapiens, BT-474, read-out: IC50, BT-474, conjugates DAR 8, comparators DAR not given
Description: as §3

[3] = tested on: Ramos (non-Hodgkins lymphoma) cell line; assay: as above; format: cell-based; settings: Ramos cells; rituximab neoDegrader conjugates versus comparators; FIG. 13
Description: as §3

[4] = tested on: HL-60 (acute myeloid leukemia) cell line; assay: as above; format: cell-based; settings: AML; conjugates DAR 8, Mylotarg DAR not given
Description: as §3

SKNO-1 cell line = assay: In vitro antiproliferation assay, General Procedure 2 (CCK-8); format: cell-based; settings: leukemia, acute myeloid leukemia
Text: as §1, §2

F-36P cell line = assay: as above; format: cell-based; settings: leukemia, myelodysplastic syndrome
Text: as §1, §2

AML-193 cell line = assay: as above; format: cell-based; settings: leukemia, acute monocytic, monocyte
Text: as §1, §2

Kopn-8 cell line = assay: as above; format: cell-based; settings: leukemia, B cell precursor leukemia
Text: as §1, §2

OCI-AML-5 cell line = assay: as above; format: cell-based; settings: leukemia, acute myeloid leukemia
Text: as §1, §2

HNT-34 cell line = assay: as above; format: cell-based; settings: leukemia, acute myeloid leukemia
Text: as §1, §2

OCI-AML-6 cell line = assay: as above; format: cell-based; settings: leukemia, acute myeloid leukemia
Text: as §1, §2

PLB-985 cell line = assay: as above; format: cell-based; settings: leukemia, acute myeloid leukemia (derivative of HL-60)
Text: as §1, §2

Kasumi-6 cell line = assay: as above; format: cell-based; settings: leukemia, acute myeloid, myeloblast
Text: as §1, §2

OCI-AML-1 cell line = assay: as above; format: cell-based; settings: leukemia, acute myeloid leukemia
Text: as §1, §2

[5] = Homo sapiens, EOL1, Acute myeloid leukemia, read-out: IC50, EOL-1
[6] = Acute myeloid leukemia, read-out: IC50, OCI-AML4
[7] = Homo sapiens, ML-2, Acute myelomonocytic leukemia, read-out: IC50, ML-2
[8] = Homo sapiens, OCI-AML2, Acute myeloid leukemia, read-out: IC50, OCI-AML2
[9] = Homo sapiens, HL-60, AML, read-out: IC50, HL-60
[10] = Homo sapiens, MOLM-13, AML, read-out: IC50, MOLM13
[11] = Homo sapiens, MV4-11, Biphenotypic B myelomonocytic leukemia, read-out: IC50, MV4-11
[12] = Homo sapiens, SKM-1, Acute myeloid leukemia, read-out: IC50, SKM-1

Row | Compound | IC50 (EOL-1 cell line; [5]) [M] | IC50 (THP-1 cell line) [nM] | IC50 (OCI-AML4 cell line; [6]) [M] | IC50 (Daudi cell line) [nM] | IC50 (RPMI7951 cell line) [nM] | IC50 (AGS cell line) [nM] | IC50 (ML-2 cell line; [7]) [M] | IC50 (CMK cell line) [nM] | IC50 (SU-DHL-8 cell line) [nM] | IC50 (JHUEM3 cell line) [nM] | IC50 (PL-21 cell line) [nM] | IC50 (OCI-AML2 cell line; [8]) [M] | IC50 (THLE2 cell line) [nM] | IC50 (HL-60 cell line; [9]) [M] | IC50 (U251MG cell line) [nM] | IC50 (MOLM13 cell line; [10]) [M] | IC50 (SNU182 cell line) [nM] | IC50 (OCI-M1 cell line) [nM] | IC50 (NB-4 cell line) [nM] | IC50 (SKOV3 cell line) [nM] | other results
1 | O=C1CCC(N2Cc3cc(CNC(=O)Nc4ccc(CCO)c(Cl)c4)ccc3C2=O)C(=O)N1 (stereo not drawn) [Compound P3, 1-(3-chloro-4-(2-hydroxyethyl)phenyl)-3-((2-(2,6-dioxopiperidin-3-yl)-1-oxoisoindolin-5-yl)methyl)urea] | 7.33e-10 | 65 | 7e-09 | 9.17 | 26 | 650 | 5.87e-10 | 12.3 | 18.4 | 37.4 | 2.09 | 2.91e-08 | 59.9 | 3.02e-09 | 35.8 | 8.5e-09 | 8.86 | 104 | 2.2 | 99.7 | IC50 (KE39 cell line): 650 nM; IC50 (MV4-11 cell line; [11]): 7.83e-10 M; IC50 (BT-474 cell line): 6.37 nM; IC50 (Molp8 cell line): 6.63 nM; IC50 (SK-BR-3 cell line): 35 nM; IC50 (SKM-1 cell line; [12]): 1.89e-09 M; IC50 (OCI-M2 cell line): 21.1 nM; IC50 (LOVO cell line): 750 nM
2 | CNc1ccccc1NC(=O)NCc1ccc2c(c1)CN(C1CCC(=O)NC1=O)C2=O (stereo not drawn) [Compound P4, 3-[[2-(2,6-dioxopiperidin-3-yl)-1-oxo-3H-isoindol-5-yl]methyl]-1-[2-(methylamino)phenyl]urea] | 1.88e-09 | 85 | 1.69e-08 | 14.3 | 30.2 | 650 | 1.27e-09 | 1000 | 19.8 | 58.6 | 2.28 | > 1e-06 | 6.27 | 5.45e-09 | 46 | 9.5e-09 | 13 | 124 | 2.63 | 138 | anti-proliferative activity compared, in words [1]: significantly less active; IC50 [2]: 2.9 nM; antiproliferative activity compared, in words [3]: less active; IC50 (KE39 cell line): 119 nM; IC50 (MV4-11 cell line; [11]): 1.91e-09 M; IC50 (BT-474 cell line): 2.9 nM; IC50 (Molp8 cell line): 7.42 nM; IC50 (SK-BR-3 cell line): 64.6 nM; IC50 (SKM-1 cell line; [12]): 3.77e-09 M; IC50 (OCI-M2 cell line): 20.9 nM; IC50 (LOVO cell line): 119 nM
3 | Mylotarg: approved agent, known antibody drug conjugate MYLOTARG |  |  |  |  |  |  |  |  |  |  |  |  |  |  |  |  |  |  |  |  | IC50 (EOL-1 cell line; Leukemia, Human eosinophilic leukaemia, read-out: IC50 (M), EoL-1): 6.87e-11 M; IC50 [4]: 0.0011 nM; IC50 (OCI-AML4 cell line; leukemia, acute myeloid leukemia, read-out: IC50 (M), OCI-AML-4): 2.37e-10 M; IC50 (SKNO-1 cell line): 13.4 nM; IC50 (ML-2 cell line; leukemia, acute myelomonocytic leukemia, read-out: IC50 (M), ML-2): 5.02e-11 M; IC50 (F-36P cell line): > 20 nM; IC50 (AML-193 cell line): > 20 nM; IC50 (Kopn-8 cell line): 0.687 nM; IC50 (OCI-AML-5 cell line): 0.0783 nM; IC50 (OCI-AML2 cell line; leukemia, acute myeloid leukemia, read-out: IC50 (M), OCI-AML-2): 3.94e-11 M; IC50 (HL-60 cell line; leukemia, acute promyelocytic, read-out: IC50 (M), HL-60): 3.26e-10 M; IC50 (HNT-34 cell line): 3.77 nM; IC50 (OCI-AML-6 cell line): > 20 nM; IC50 (MOLM13 cell line; leukemia, acute,myeloid,leukemia suspension, read-out: IC50 (M), Molm-13): 2.7e-11 M; IC50 (PLB-985 cell line): 7.14 nM; IC50 (MV4-11 cell line; leukemia, biphenotypic B myelomonocytic, read-out: IC50 (M), MV-4-11): 5.32e-11 M; IC50 (SKM-1 cell line; leukemia, myelodysplastic syndrome, read-out: IC50 (M), SKM-1): 2.24e-10 M; IC50 (Kasumi-6 cell line): > 20 nM; IC50 (OCI-AML-1 cell line): 0.224 nM
